Assay results from US8022219B2, “2-hydroxymethy1-3,4,5-trihydroxy-1-(4-pentyloxybenzyl) piperidine as glucosylceramide synthase (Gcs) inhibitor” (Actelion Pharmaceuticals Ltd., priority 2003, dated 2011).

Assays:
[1] = target: T1, human recombinant GCS expressed in insect cells (Homo sapiens, UniProt Q16739); assay: Inhibition of GCS; type: biochemical; settings: read-out: Inhibition of glucosylceramide synthase (IC50 μM)
T1 construct: made in house; host or cells: insect cells
T1 sequence (Q16739 1-394): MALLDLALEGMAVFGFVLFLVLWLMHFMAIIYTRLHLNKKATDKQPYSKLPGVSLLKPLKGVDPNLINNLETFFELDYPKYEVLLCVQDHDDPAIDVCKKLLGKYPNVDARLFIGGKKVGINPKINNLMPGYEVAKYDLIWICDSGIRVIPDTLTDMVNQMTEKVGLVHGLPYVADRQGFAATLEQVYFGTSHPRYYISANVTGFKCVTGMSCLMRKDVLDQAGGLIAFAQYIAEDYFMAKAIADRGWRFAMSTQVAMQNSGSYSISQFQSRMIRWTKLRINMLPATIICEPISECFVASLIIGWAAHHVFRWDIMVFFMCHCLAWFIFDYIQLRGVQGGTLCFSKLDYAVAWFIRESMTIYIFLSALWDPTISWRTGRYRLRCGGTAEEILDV
Protocol: The assay for inhibition of GCS was performed essentially as described in Platt et al., J. Biol. Chem., 1994, 269, 27108, the enzyme source being human recombinant GCS expressed in insect cells.

[2] = target: T2, non-lysosomal-β-glucocerebrosidase (Homo sapiens, UniProt Q9HCG7); assay: Inhibition of non-lysosomal-β-glucocerebrosidase; type: biochemical; settings: whole cell extracts of MCF7 as enzyme source; 5 mM 4-MU β-glucoside; 0.2M citrate/phosphate pH 5.8
T2 construct: whole cell extracts of MCF7 (a human breast carcinoma cell line) was used as the source of the enzyme; endogenous in cells; host or cells: MCF7 whole cell extract
T2 sequence (Q9HCG7 1-927): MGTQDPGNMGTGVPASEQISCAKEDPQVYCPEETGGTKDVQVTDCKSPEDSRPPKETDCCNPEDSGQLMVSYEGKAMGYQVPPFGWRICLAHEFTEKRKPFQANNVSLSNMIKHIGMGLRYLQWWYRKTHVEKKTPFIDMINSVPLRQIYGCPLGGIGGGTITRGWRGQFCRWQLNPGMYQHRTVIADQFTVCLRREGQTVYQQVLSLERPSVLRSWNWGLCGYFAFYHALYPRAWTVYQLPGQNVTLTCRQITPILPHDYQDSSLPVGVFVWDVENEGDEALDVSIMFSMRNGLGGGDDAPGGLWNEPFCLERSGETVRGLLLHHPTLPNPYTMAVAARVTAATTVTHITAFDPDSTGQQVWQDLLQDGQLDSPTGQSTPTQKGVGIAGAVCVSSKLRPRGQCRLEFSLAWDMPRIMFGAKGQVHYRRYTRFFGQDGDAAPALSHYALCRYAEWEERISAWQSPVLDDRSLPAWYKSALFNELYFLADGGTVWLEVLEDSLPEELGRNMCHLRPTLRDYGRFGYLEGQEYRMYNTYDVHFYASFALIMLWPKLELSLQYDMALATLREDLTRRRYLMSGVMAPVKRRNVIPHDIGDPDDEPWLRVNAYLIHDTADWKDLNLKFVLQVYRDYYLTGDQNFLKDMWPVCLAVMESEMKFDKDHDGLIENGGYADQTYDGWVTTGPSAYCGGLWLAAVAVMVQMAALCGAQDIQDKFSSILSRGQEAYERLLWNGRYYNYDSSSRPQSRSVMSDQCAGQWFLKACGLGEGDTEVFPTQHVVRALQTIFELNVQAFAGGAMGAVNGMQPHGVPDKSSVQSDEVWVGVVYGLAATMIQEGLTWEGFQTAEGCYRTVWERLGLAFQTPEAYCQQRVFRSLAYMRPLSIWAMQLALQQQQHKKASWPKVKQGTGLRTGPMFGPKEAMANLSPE
Protocol: Inhibition of Non-Lysosomal-β-Glucocerebrosidase
The assay for inhibition of non-lysosomal-β-glucocerebrosidase was essentially carried out as described in Overkleeft, H. S. et al., J. Biol. Chem., 1998, 273, 26522-26527, with the following differences: whole cell extracts of MCF7 (a human breast carcinoma cell line) was used as the source of the enzyme instead of splenic membrane suspensions; 5 mM instead of 3 mM, 4-MU β-glucoside was used as substrate and 0.2M citrate/phosphate (pH 5.8) was used instead of McIlvaine buffer.

**Q.** How did the IC50 [1] turn out when `CCCCCOc1ccc(CN2C[C@H](O)[C@@H](O)[C@@H](O)[C@@H]2CO)cc1` [Example 1, 3,4,5-Piperidinetriol, 2-(hydroxymethyl)-1-[(4-(pentyloxy)phenyl)methyl]-, (2S,3S,4R,5S)] was run?
**A.** 4.8 µM

**Q.** And the IC50 [2]?
**A.** 2.5 µM
